Source: ChEMBL document CHEMBL4834416, “The Discovery of Novel ACA Derivatives as Specific TRPM2 Inhibitors that Reduce Ischemic Injury Both In Vitro and In Vivo” (J Med Chem, 2021)
The source made the active and inactive calls. The rule behind the calls is not given here.

molecular target: T1, Transient receptor potential cation channel subfamily M member 2 (Homo sapiens, UniProt O94759); experiment: Inhibition of human TRPM2 expressed in HEK293T cells assessed as suppression of H2O2-induced calcium flux at 0.3 uM measured after 30 mins by Fluo-3/AM assay; format: cell-based
T1 sequence (O94759 whole entry): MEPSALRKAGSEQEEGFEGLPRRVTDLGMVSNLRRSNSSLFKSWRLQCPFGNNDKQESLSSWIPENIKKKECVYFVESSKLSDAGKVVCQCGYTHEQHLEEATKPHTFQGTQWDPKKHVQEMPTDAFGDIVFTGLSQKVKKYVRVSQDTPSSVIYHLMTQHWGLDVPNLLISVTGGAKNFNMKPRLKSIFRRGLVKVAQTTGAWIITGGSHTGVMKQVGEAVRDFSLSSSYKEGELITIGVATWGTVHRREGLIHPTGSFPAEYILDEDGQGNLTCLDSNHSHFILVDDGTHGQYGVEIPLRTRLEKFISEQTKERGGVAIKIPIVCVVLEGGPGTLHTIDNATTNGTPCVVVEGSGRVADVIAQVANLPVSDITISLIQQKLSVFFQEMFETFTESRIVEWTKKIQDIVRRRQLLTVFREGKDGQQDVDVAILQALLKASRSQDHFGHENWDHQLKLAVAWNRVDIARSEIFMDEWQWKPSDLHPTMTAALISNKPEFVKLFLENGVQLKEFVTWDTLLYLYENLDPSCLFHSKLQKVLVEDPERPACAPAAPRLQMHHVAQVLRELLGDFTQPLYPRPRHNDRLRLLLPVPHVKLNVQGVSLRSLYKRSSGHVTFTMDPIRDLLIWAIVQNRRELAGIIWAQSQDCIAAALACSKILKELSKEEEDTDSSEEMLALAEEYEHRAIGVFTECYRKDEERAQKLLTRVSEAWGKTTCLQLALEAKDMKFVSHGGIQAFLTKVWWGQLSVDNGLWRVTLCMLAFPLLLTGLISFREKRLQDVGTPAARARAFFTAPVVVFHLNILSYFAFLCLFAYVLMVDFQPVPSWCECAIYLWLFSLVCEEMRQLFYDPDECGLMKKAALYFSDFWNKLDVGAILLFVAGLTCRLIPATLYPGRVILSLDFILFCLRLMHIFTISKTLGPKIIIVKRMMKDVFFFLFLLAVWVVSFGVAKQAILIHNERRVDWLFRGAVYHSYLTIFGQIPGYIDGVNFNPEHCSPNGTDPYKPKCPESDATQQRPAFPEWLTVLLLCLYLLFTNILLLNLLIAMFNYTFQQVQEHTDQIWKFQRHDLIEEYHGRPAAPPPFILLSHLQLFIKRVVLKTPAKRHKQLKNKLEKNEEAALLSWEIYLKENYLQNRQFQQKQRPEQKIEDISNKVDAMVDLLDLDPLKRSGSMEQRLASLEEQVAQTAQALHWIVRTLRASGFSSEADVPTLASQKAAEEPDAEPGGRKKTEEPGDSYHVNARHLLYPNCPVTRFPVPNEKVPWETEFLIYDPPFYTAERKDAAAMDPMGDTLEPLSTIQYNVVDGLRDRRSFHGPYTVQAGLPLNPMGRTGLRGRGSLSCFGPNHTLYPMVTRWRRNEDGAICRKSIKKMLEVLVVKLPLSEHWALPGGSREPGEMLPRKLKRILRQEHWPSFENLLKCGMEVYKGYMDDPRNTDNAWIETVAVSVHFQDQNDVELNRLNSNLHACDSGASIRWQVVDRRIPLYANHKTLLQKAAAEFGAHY

Compound | inhibition
CCc1ccc(/C=C/C(=O)Nc2ccccc2C(=O)O)cc1 | inactive
CCOc1ccc(/C=C/C(=O)Nc2ccccc2C(=O)O)cc1 | inactive

molecular target: T1, Transient receptor potential cation channel subfamily M member 2; experiment: Inhibition of human TRPM2 expressed in HEK293T cells assessed as suppression of H2O2-induced calcium flux at 1 uM measured after 30 mins by Fluo-3/AM assay; format: cell-based

Compound | inhibition [%]
CCCCCc1ccc(/C=C/c2ccccc2C(=O)O)cc1 | < 45
O=C(/C=C/c1ccc(-c2cccc(Cl)c2)cc1)Nc1ccccc1C(=O)O | > 45
CCc1ccc(/C=C/C(=O)Nc2ccccc2C(=O)O)cc1 | < 45
CCCCCc1ccc(/C=C/C(=O)Nc2ccc(C(=O)O)cc2)cc1 | < 45
CCOc1ccc(/C=C/C(=O)Nc2ccccc2C(=O)O)cc1 | < 45
O=C(/C=C/c1ccc(-c2ccccc2)cc1)Nc1ccc(Cl)cc1C(=O)O | > 45
CCCCCc1ccc(/C=C/C(=O)Nc2ccc(Br)cc2C(=O)O)cc1 | > 45
O=C(/C=C/c1ccc(-c2ccccc2C(F)(F)F)cc1)Nc1ccccc1C(=O)O | > 45
CCCCCc1ccc(/C=C/C(=O)Nc2c(Cl)cccc2C(=O)O)cc1 | < 45
CCCCCc1ccc(/C=C/C(=O)Nc2c(C(=O)O)ccc(C)c2C)cc1 | < 45
O=C(/C=C/c1ccc(-c2ccccc2)cc1)Nc1cc(Cl)ccc1C(=O)O | > 45
O=C(/C=C/c1ccc(-c2ccccc2)cc1)Nc1ccc(F)cc1C(=O)O | > 45
O=C(/C=C/c1ccc(-c2ccc(F)cc2)cc1)Nc1ccccc1C(=O)O | < 45
Cc1ccc(-c2ccc(/C=C/C(=O)Nc3ccccc3C(=O)O)cc2)cc1 | > 45
COc1cccc(-c2ccc(/C=C/C(=O)Nc3ccccc3C(=O)O)cc2)c1 | > 45
CC(C)(C)c1ccc(-c2ccc(/C=C/C(=O)Nc3ccccc3C(=O)O)cc2)cc1 | > 45
CCCCCc1ccc(/C=C/C(=O)N2CCC(=O)c3ccccc32)cc1 | < 45
CCCCCc1ccc(/C=C/C(=O)Nc2cc(F)c(F)cc2C(=O)O)cc1 | > 45
CCCCCc1ccc(/C=C/C(=O)Nc2cccc(C(=O)O)c2)cc1 | > 45
O=C(/C=C/c1ccc(-c2cccc([N+](=O)[O-])c2)cc1)Nc1ccc(Br)cc1C(=O)O | > 45
O=C(/C=C/c1ccc(-c2ccc(C(F)(F)F)cc2)cc1)Nc1ccccc1C(=O)O | > 45

Compound | inhibition [%]
Cc1cc(-c2ccccc2)ccc1/C=C/C(=O)Nc1ccccc1C(=O)O | > 45
Cc1cccc(-c2ccc(/C=C/C(=O)Nc3ccccc3C(=O)O)cc2)c1 | > 45
O=C(/C=C/c1ccc(-c2ccccc2)cc1)N1C(=O)c2ccccc21 | < 45
Cc1ccc(C(=O)O)c(NC(=O)/C=C/c2ccc(-c3cccc([N+](=O)[O-])c3)cc2)c1 | > 45
O=C(/C=C/c1ccc(-c2ccccc2F)cc1)Nc1ccccc1C(=O)O | > 45
CCc1ccc(-c2ccc(/C=C/C(=O)Nc3ccccc3C(=O)O)cc2)cc1 | > 45
CCCCCc1ccc(/C=C/C(=O)N2CCCC(=O)c3ccccc32)cc1 | < 45
CCCCCc1ccc(/C=C/C(=O)Nc2c(C)cccc2C(=O)O)cc1 | < 45
Cc1ccccc1-c1ccc(/C=C/C(=O)Nc2ccccc2C(=O)O)cc1 | > 45
COc1ccccc1-c1ccc(/C=C/C(=O)Nc2ccccc2C(=O)O)cc1 | > 45
COc1ccc(-c2ccc(/C=C/C(=O)Nc3ccccc3C(=O)O)cc2)cc1 | > 45
O=C(/C=C/c1ccc(-c2cccc(Br)c2)cc1)Nc1ccccc1C(=O)O | > 45
CCCCCc1ccc(/C=C/C(=O)Nc2c(C)cc(Cl)cc2C(=O)O)cc1 | < 45
CCCCCc1ccc(/C=C/C(=O)Nc2cc(Cl)ccc2C(=O)O)cc1 | > 45
CC(C)c1ccc(-c2ccc(/C=C/C(=O)Nc3ccccc3C(=O)O)cc2)cc1 | > 45
CCCCCc1ccc(C(=O)Nc2ccccc2C(=O)O)cc1 | > 45
CCCCCc1ccc(/C=C/C(=O)c2ccccc2C(=O)O)cc1 | > 45
O=C1CCCN(C(=O)/C=C/c2ccc(-c3ccccc3)cc2)c2ccccc21 | < 45
O=C1CCN(C(=O)/C=C/c2ccc(-c3ccccc3)cc2)c2ccccc21 | < 45
Cc1cc(/C=C/C(=O)Nc2ccccc2C(=O)O)ccc1-c1ccccc1 | > 45
CCCCCc1ccc(NC(=O)c2ccccc2C(=O)O)cc1 | > 45
